How the values were obtained:
Assay type in all cases: cell-based
serotonin transporter = target: T1, serotonin transporter (Homo sapiens, UniProt P31645); assay: Serotonin reuptake inhibition in transporter-transfected HEK-293 cells ([3H]-5-HT); details: for Triple reuptake inhibition (Ratio %) SERT: compound 1 μM, [3H]-5-HT, relative to control without compound (100%), lower = more inhibition; for IC50: concentration at which Ratio % is 50%, 6 concentrations 1 nM to 1 μM, read-out: Triple reuptake inhibition (IC50, μM) SERT
T1 construct: expressed in transfected cells; host or cells: HEK-293
T1 sequence (P31645 whole entry): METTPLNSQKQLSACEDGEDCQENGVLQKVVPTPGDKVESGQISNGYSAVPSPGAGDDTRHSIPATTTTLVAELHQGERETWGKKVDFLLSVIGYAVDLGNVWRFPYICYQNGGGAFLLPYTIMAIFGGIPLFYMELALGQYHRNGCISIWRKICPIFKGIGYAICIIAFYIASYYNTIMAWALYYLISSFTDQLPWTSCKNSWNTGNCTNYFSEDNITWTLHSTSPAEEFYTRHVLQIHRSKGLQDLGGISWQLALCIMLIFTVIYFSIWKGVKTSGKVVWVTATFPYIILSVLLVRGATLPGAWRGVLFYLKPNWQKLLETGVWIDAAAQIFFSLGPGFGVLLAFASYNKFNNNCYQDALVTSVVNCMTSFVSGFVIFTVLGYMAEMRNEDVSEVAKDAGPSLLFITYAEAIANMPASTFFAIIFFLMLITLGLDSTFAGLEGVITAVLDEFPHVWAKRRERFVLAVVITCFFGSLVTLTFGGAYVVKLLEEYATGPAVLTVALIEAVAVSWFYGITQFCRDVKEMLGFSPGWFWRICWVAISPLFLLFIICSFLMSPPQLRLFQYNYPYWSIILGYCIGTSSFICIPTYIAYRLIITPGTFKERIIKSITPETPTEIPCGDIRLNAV
Procedure: (§1) To evaluate the reuptake inhibitory effect on dopamine, the dopamine transporter cDNA was transfected using the HEK-293 cell line, and then sub-seeded in a 24 well plate the next day. After removing the medium, each compound of the Examples or Comparative Examples diluted to 1 μM in uptake buffer was added to a concentration of 200 μl/well and cultured at 37° C. for 15 minutes. 100 μl of uptake buffer containing 20-30 nM [3H]-DA was added and cultured at 37° C. for 5 minutes. The reaction solution was quickly removed and washed three times with 1 ml ice-cold uptake buffer. After dissolving the resultant in 1% SDS (0.5 ml), the degree of binding of radioisotope-labeled dopamine to the transporter was measured.
(§2) For norepinephrine (NE) and serotonin (5-HT), the degree of binding of radioisotope-labeled norepinephrine or serotonin to the transporter was measured in the same manner as above, except that cells transfected with NE or 5-HT transporter cDNA were used and [3H]-NE or [3H]-5-HT was used as a substrate.
(§3) In addition, when evaluating the reuptake inhibitory effect on dopamine, norepinephrine, and serotonin, the same method was performed without treating each compound of the Examples or Comparative Examples as a control, the degree of binding of radioisotope-labeled dopamine, norepinephrine, and serotonin to the transporter was measured, and by using this as a standard (100%), the triple reuptake inhibitory effect was evaluated as a relative ratio (Ratio %). That is, in the control group, the binding of dopamine, norepinephrine, and serotonin to transporters is not inhibited, but when each compound of the Examples is treated and thus the binding is inhibited, the Patio % value decreases.
In addition, in the case of the compound of Comparative Example 1, IC50 was obtained by the same method as the Example Compounds.

[1] = target: T2, norepinephrine transporter (Homo sapiens, UniProt P23975); assay: Norepinephrine reuptake inhibition in transporter-transfected HEK-293 cells ([3H]-NE); details: for Triple reuptake inhibition (Ratio %) NET: compound 1 μM, [3H]-NE, relative to control without compound (100%), lower = more inhibition; for IC50: concentration at which Ratio % is 50%, 6 concentrations 1 nM to 1 μM, read-out: Triple reuptake inhibition (IC50, μM) NET
T2 construct: expressed in transfected cells; host or cells: HEK-293
T2 sequence (P23975 whole entry, species assumed): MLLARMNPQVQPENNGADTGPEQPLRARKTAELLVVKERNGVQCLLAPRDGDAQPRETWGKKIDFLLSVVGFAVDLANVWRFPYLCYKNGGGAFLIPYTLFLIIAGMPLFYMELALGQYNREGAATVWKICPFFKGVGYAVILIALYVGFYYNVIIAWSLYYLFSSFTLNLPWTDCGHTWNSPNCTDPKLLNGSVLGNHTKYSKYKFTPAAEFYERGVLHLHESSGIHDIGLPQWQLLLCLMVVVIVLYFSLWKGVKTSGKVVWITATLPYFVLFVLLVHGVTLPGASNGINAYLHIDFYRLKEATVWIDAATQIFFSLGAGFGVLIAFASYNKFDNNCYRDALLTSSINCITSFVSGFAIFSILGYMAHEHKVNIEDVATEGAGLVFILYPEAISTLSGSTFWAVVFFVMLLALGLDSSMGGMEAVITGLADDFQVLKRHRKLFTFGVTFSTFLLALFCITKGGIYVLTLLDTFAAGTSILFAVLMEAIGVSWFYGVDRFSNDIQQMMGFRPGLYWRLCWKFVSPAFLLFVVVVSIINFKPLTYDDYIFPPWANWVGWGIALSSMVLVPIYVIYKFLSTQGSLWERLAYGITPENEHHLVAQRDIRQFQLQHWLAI
Procedure: as §1, §2, §3
(§4) Meanwhile, the Patio % values were compared, and in the case of the compounds of Examples 6, 9, 10, 19, 20, 22, 24, 28, 30, 31, 32, 33, 35, 41, 42, 48, 49, 51, 55, 56, 59, 61, 63, 64, 65, 66, 74 and 76 with excellent reuptake inhibitory effects on dopamine, norepinephrine and serotonin, the concentration at which the Ratio % is 50% was calculated using a total of 6 concentrations (1 nM, 5 nM, 10 nM, 50 nM, 100 nM, and 1 μM) and expressed as IC50. In addition, in the case of the compound of Comparative Example 1, IC50 was obtained by the same method as the Example Compounds.

dopamine transporter = target: T3, dopamine transporter (Homo sapiens, UniProt Q01959); assay: Dopamine reuptake inhibition in transporter-transfected HEK-293 cells ([3H]-DA); details: for Triple reuptake inhibition (Ratio %) DAT: compound 1 μM, 20-30 nM [3H]-DA, relative to control without compound (100%), lower = more inhibition; for IC50: concentration at which Ratio % is 50%, 6 concentrations 1 nM to 1 μM, read-out: Triple reuptake inhibition (IC50, μM) DAT
T3 construct: expressed in transfected cells; host or cells: HEK-293
T3 sequence (Q01959 whole entry): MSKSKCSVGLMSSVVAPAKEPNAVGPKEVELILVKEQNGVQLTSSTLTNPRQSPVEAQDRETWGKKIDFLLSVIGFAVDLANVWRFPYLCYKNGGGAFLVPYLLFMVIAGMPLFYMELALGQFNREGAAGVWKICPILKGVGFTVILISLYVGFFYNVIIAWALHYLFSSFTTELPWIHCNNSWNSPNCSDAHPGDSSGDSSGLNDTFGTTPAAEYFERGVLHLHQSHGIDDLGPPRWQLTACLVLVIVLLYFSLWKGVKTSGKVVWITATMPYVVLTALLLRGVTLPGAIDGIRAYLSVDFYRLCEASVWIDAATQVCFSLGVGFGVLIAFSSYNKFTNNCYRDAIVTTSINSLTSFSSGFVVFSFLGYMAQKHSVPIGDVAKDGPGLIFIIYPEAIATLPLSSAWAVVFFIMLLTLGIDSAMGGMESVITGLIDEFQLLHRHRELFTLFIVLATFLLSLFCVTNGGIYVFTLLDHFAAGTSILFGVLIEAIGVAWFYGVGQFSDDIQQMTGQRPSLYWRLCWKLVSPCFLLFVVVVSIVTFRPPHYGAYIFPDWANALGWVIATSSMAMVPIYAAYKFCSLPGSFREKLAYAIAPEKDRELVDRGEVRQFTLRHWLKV
Procedure: as §1, §3, §4

SMILES: O=C(NCCN1CCC(Cc2ccc(Cl)c(Cl)c2)CC1)c1cc(Cl)cc(Cl)c1 [Example 10, 3,5-dichloro-N-(2-(4-(3,4-dichlorobenzyl)piperidin-1-yl)ethyl)benzamide]
- Triple reuptake inhibition (Ratio %) SERT (serotonin transporter): 37.57%
- Triple reuptake inhibition (Ratio %) NET [1]: 76.85%
- IC50 [1]: 14.3 µM
- Triple reuptake inhibition (Ratio %) DAT (dopamine transporter): 44.72%
- IC50 (dopamine transporter): 4.29 µM

SMILES: O=C(NCCN1CCC(Cc2ccccc2)CC1)c1ccc[nH]1 [Example 75, N-(2-(4-benzylpiperidin-1-yl)ethyl)-1H-pyrrol-2-carboxamide]
- Triple reuptake inhibition (Ratio %) SERT (serotonin transporter): 98.97%
- Triple reuptake inhibition (Ratio %) NET [1]: 67.08%
- Triple reuptake inhibition (Ratio %) DAT (dopamine transporter): 83.55%

SMILES: CC(C)(CN1CCC(Cc2ccccc2)CC1)NC(=O)c1cc2ccccc2[nH]1 [Example 34, N-(1-(4-benzylpiperidin-1-yl)-2-methylpropan-2-yl)-1H-indol-2-carboxamide]
- Triple reuptake inhibition (Ratio %) SERT (serotonin transporter): 90.64%
- Triple reuptake inhibition (Ratio %) NET [1]: 70.66%
- Triple reuptake inhibition (Ratio %) DAT (dopamine transporter): 55.54%

SMILES: O=C(NCCN1CCN(c2cccc(Cl)c2Cl)CC1)c1cc2ccccc2[nH]1 [Example 23, N-(2-(4-(2,3-dichlorophenyl)piperazin-1-yl)ethyl)-1H-indol-2-carboxamide]
- Triple reuptake inhibition (Ratio %) SERT (serotonin transporter): 85.13%
- Triple reuptake inhibition (Ratio %) NET [1]: 99.59%
- Triple reuptake inhibition (Ratio %) DAT (dopamine transporter): 70.42%

SMILES: O=C(NCCN1CCC(Cc2ccc(Cl)c(Cl)c2)CC1)c1cc2cc(F)ccc2[nH]1 [Example 51, N-(2-(4-(3,4-dichlorobenzyl)piperidin-1-yl)ethyl)-5-fluoro-1H-indol-2-carboxamide]
- Triple reuptake inhibition (Ratio %) SERT (serotonin transporter): 27.71%
- IC50 (serotonin transporter): 0.331 µM
- Triple reuptake inhibition (Ratio %) NET [1]: 83.07%
- Triple reuptake inhibition (Ratio %) DAT (dopamine transporter): 41.61%
- IC50 (dopamine transporter): 0.636 µM

SMILES: O=C(NCCN1CCC(Cc2ccccc2)CC1)c1cc2cc(Cl)c(Cl)cc2[nH]1 [Example 47, N-(2-(4-benzylpiperidin-1-yl)ethyl)-5,6-dichloro-1H-indol-2-carboxamide]
- Triple reuptake inhibition (Ratio %) SERT (serotonin transporter): 75.98%
- Triple reuptake inhibition (Ratio %) NET [1]: 94.59%
- Triple reuptake inhibition (Ratio %) DAT (dopamine transporter): 41.80%

SMILES: O=C(NCCN1CCC(Cc2ccccc2)CC1)c1ccccn1 [Example 71, N-(2-(4-benzylpiperidin-1-yl)ethyl)picolinamide]
- Triple reuptake inhibition (Ratio %) SERT (serotonin transporter): 67.98%
- Triple reuptake inhibition (Ratio %) NET [1]: 105.84%
- Triple reuptake inhibition (Ratio %) DAT (dopamine transporter): 117.41%

SMILES: O=C(NCCN1CCN(c2cccc(Cl)c2Cl)CC1)c1ccc(Cl)c(Cl)c1 [Example 13, 3,4-dichloro-N-(2-(4-(2,3-dichlorophenyl)piperazin-1-yl)ethyl)benzamide]
- Triple reuptake inhibition (Ratio %) SERT (serotonin transporter): 89.10%
- Triple reuptake inhibition (Ratio %) NET [1]: 94.42%
- Triple reuptake inhibition (Ratio %) DAT (dopamine transporter): 106.09%

SMILES: O=C(NCCN1CCN(Cc2ccc(F)c(F)c2)CC1)c1ccc2cc(Br)ccc2c1 [Example 7, 6-bromo-N-(2-(4-(3,4-difluorobenzyl)piperazin-1-yl)ethyl)-2-naphthamide]
- Triple reuptake inhibition (Ratio %) SERT (serotonin transporter): 103.19%
- Triple reuptake inhibition (Ratio %) NET [1]: 60.83%
- Triple reuptake inhibition (Ratio %) DAT (dopamine transporter): 82.42%

SMILES: O=C(NCCN1CCC(Cc2ccccc2)CC1)c1cc2cc(F)ccc2[nH]1 [Example 49]
- Triple reuptake inhibition (Ratio %) SERT (serotonin transporter): 62.50%
- IC50 (serotonin transporter): 1.47 µM
- Triple reuptake inhibition (Ratio %) NET [1]: 26.73%
- IC50 [1]: 0.561 µM
- Triple reuptake inhibition (Ratio %) DAT (dopamine transporter): 24.67%
- IC50 (dopamine transporter): 0.138 µM

SMILES: O=C(NCCN1CCC(Cc2ccccc2)CC1)[C@H]1Cc2ccccc2N1 [Example 58, (R)—N-(2-(4-benzylpiperidin-1-yl)ethyl)indolin-2-carboxamide]
- Triple reuptake inhibition (Ratio %) SERT (serotonin transporter): 105.84%
- Triple reuptake inhibition (Ratio %) NET [1]: 82.39%
- Triple reuptake inhibition (Ratio %) DAT (dopamine transporter): 66.26%

SMILES: O=C(c1cc2ccccc2[nH]1)N1CCC(Cc2ccccc2)CC1 [Example 26, (4-benzylpiperidin-1-yl) (1H-indol-2-yl)methanone]
- Triple reuptake inhibition (Ratio %) SERT (serotonin transporter): 113.81%
- Triple reuptake inhibition (Ratio %) NET [1]: 92.07%
- Triple reuptake inhibition (Ratio %) DAT (dopamine transporter): 124.32%

SMILES: O=C(NCCN1CCC(C(O)c2ccccc2)CC1)c1cc2ccccc2[nH]1 (centres unmarked) [Example 36, N-(2-(4-(hydroxy(phenyl)methyl)piperidin-1-yl)ethyl)-1H-indol-2-carboxamide]
- Triple reuptake inhibition (Ratio %) SERT (serotonin transporter): 111.92%
- Triple reuptake inhibition (Ratio %) NET [1]: 90.99%
- Triple reuptake inhibition (Ratio %) DAT (dopamine transporter): 84.74%

SMILES: COc1ccc2[nH]c(C(=O)NCCN3CCC(Cc4ccccc4)CC3)cc2c1 [Example 33, N-(2-(4-benzylpiperidin-1-yl)ethyl)-5-methoxy-1H-indol-2-carboxamide]
- Triple reuptake inhibition (Ratio %) SERT (serotonin transporter): 48.73%
- IC50 (serotonin transporter): 1.33 µM
- Triple reuptake inhibition (Ratio %) NET [1]: 65.51%
- IC50 [1]: 1.7 µM
- Triple reuptake inhibition (Ratio %) DAT (dopamine transporter): 25.55%
- IC50 (dopamine transporter): 0.331 µM

SMILES: CCCCOc1ccc2cc(C(=O)NCCN3CCC(Cc4ccccc4)CC3)[nH]c2c1 [Example 42, N-(2-(4-benzylpiperidin-1-yl)ethyl)-6-butoxy-1H-indol-2-carboxamide]
- Triple reuptake inhibition (Ratio %) SERT (serotonin transporter): 46.64%
- IC50 (serotonin transporter): 0.68 µM
- Triple reuptake inhibition (Ratio %) NET [1]: 44.53%
- IC50 [1]: 0.171 µM
- Triple reuptake inhibition (Ratio %) DAT (dopamine transporter): 45.67%
- IC50 (dopamine transporter): 0.338 µM

SMILES: O=C(NCC(=O)N1CCC(Cc2ccccc2)CC1)c1cc2ccccc2[nH]1 [Example 50, N-(2-(4-benzylpiperidin-1-yl)-2-oxoethyl)-1H-indol-2-carboxamide]
- Triple reuptake inhibition (Ratio %) SERT (serotonin transporter): 100.83%
- Triple reuptake inhibition (Ratio %) NET [1]: 93.21%
- Triple reuptake inhibition (Ratio %) DAT (dopamine transporter): 108.32%

SMILES: O=C(NCCN1CCC(Cc2ccccc2)CC1)c1cc2cc(F)c(F)cc2[nH]1 [Example 32, N-(2-(4-benzylpiperidin-1-yl)ethyl)-5,6-difluoro-1H-indol-2-carboxamide]
- Triple reuptake inhibition (Ratio %) SERT (serotonin transporter): 54.81%
- IC50 (serotonin transporter): 2.04 µM
- Triple reuptake inhibition (Ratio %) NET [1]: 66.78%
- IC50 [1]: 1.47 µM
- Triple reuptake inhibition (Ratio %) DAT (dopamine transporter): 28.03%
- IC50 (dopamine transporter): 0.824 µM

SMILES: O=C(NCCN1CCN(c2ccc(Cl)c(Cl)c2)CC1)c1cc2ccccc2[nH]1 [Example 24, N-(2-(4-(3,4-dichlorophenyl)piperazin-1-yl)ethyl)-1H-indol-2-carboxamide]
- Triple reuptake inhibition (Ratio %) SERT (serotonin transporter): 59.92%
- IC50 (serotonin transporter): > 10 µM
- Triple reuptake inhibition (Ratio %) NET [1]: 107.75%
- Triple reuptake inhibition (Ratio %) DAT (dopamine transporter): 43.28%
- IC50 (dopamine transporter): 8.03 µM

SMILES: O=C(NCCN1CCN(Cc2ccccc2)CC1)c1ccc(Cl)c(Cl)c1 [Example 15, N-(2-(4-benzylpiperazin-1-yl)ethyl)-3,4-dichlorobenzamide]
- Triple reuptake inhibition (Ratio %) SERT (serotonin transporter): 114.75%
- Triple reuptake inhibition (Ratio %) NET [1]: 72.94%
- Triple reuptake inhibition (Ratio %) DAT (dopamine transporter): 85.21%

SMILES: O=C(NCCN1CCN(c2cccc(C(F)(F)F)c2)CC1)c1cc2ccccc2[nH]1 [Example 21, N-(2-(4-(3-(trifluoromethyl)phenyl)piperazin-1-yl)ethyl)-1H-indol-2-carboxamide]
- Triple reuptake inhibition (Ratio %) SERT (serotonin transporter): 86.98%
- Triple reuptake inhibition (Ratio %) NET [1]: 97.95%
- Triple reuptake inhibition (Ratio %) DAT (dopamine transporter): 94.30%

SMILES: O=C(NCCN1CCC(Cc2ccccc2)CC1)c1cc2cc(Br)ccc2[nH]1 [Example 30, N-(2-(4-benzylpiperidin-1-yl)ethyl)-5-bromo-1H-indol-2-carboxamide]
- Triple reuptake inhibition (Ratio %) SERT (serotonin transporter): 75.29%
- Triple reuptake inhibition (Ratio %) NET [1]: 94.09%
- IC50 [1]: 7.91 µM
- Triple reuptake inhibition (Ratio %) DAT (dopamine transporter): 49.44%
- IC50 (dopamine transporter): 0.984 µM

SMILES: O=C(NCCN1CCN(Cc2ccccc2)CC1)c1cc2ccccc2[nH]1 [Example 25, N-(2-(4-benzylpiperazin-1-yl)ethyl)-1H-indol-2-carboxamide]
- Triple reuptake inhibition (Ratio %) SERT (serotonin transporter): 97.46%
- Triple reuptake inhibition (Ratio %) NET [1]: 76.45%
- Triple reuptake inhibition (Ratio %) DAT (dopamine transporter): 76.50%

SMILES: O=C(NCCN1CCN(c2ccc(Cl)c(Cl)c2)CC1)c1ccc2cc(Br)ccc2c1 [Example 3, 6-bromo-N-(2-(4-(3,4-dichlorophenyl)piperazin-1-yl)ethyl)-2-naphthamide]
- Triple reuptake inhibition (Ratio %) SERT (serotonin transporter): 77.91%
- Triple reuptake inhibition (Ratio %) NET [1]: 110.56%
- Triple reuptake inhibition (Ratio %) DAT (dopamine transporter): 104.38%

— patent US20240018119A1, “CARBOXAMIDE DERIVATIVE AND PHARMACEUTICAL COMPOSITION COMPRISING SAME AS ACTIVE INGREDIENT FOR PREVENTING OR TREATING MENTAL ILLNESS” (DAEGU-GYEONGBUK MEDICAL INNOVATION FOUNDATION, priority 2020, published 2024)
